According to paper PMC3720735 (PLoS ONE, 2013):

Columns and labels:
[1] = target: T1, α7-nicotinic acetylcholine receptor (Homo sapiens, UniProt P36544); assay: two-electrode voltage clamp of ACh currents in Xenopus oocytes expressing the human receptor; assay type: cell-based
T1 construct: gene CHRNA7

[2] = target: T2, α7-nACh receptor (Rattus norvegicus, UniProt Q05941); assay type: cell-based
T2 construct: gene Chrna7
T2 sequence (Q05941 23-502): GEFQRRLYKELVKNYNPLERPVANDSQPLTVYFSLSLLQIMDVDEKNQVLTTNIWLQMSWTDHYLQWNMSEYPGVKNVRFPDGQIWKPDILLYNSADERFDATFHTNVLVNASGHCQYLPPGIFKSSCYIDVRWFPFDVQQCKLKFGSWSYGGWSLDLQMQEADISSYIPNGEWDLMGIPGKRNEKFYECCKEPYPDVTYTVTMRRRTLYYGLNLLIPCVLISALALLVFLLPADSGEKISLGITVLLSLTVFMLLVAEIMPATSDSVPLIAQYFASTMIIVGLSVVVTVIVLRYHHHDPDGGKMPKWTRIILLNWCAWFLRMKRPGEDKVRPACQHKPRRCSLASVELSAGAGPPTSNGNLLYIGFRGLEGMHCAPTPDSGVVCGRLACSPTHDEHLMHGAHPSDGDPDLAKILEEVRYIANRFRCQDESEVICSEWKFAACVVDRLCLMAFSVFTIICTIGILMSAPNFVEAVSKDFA

T1 sequence (P36544 23-502): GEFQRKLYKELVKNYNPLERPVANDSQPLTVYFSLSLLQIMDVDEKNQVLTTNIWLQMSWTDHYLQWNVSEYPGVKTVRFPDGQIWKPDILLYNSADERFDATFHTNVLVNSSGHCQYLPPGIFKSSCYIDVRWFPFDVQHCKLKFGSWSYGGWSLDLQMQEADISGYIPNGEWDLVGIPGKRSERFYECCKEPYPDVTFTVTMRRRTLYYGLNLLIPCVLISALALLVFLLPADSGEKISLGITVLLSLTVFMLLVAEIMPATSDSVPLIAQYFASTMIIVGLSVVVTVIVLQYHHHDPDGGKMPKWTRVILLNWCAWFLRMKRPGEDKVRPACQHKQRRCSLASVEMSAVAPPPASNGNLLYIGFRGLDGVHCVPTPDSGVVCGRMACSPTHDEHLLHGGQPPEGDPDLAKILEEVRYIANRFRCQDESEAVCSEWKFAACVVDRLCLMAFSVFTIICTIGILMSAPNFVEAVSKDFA

## CC1CCC(C(C)C)C(O)C1 (racemic) [menthol]
[1]
  IC50: 32.6 ± 2.3 µM

## O=C(N[C@H]1CN2CCC1CC2)c1ccc(Cl)cc1 [PNU282987]
[2]
  GCaMP5G Ca2+ imaging in PC12 cells (endogenous receptor), 10 μM, blocked by α-bu: activation of the α7-nACh receptor with nicotine or the selective α7-agonist PNU282987 (PNU) was associated with a significant increase
